# Results from patent US20160024051A1, “SALTS AND SOLID FORMS OF ISOQUINOLINONES AND COMPOSITION COMPRISING AND METHODS OF USING THE SAME” (INFINITY PHARMACEUTICALS, INC., priority 2013, published 2016).
# Experiments:
# [1] = Solubility assessment using FB Hydrate Form 2; format: physicochemical; conditions: for Solubility: (RT)
# Description: The best solvent systems (clear solutions) were methanol:anisole 1:1 and DMSO (10 volumes, at RT), dioxane (10 volumes, 50° C.), chloroform (20 volumes, RT). […]
# [2] = Polymorphism study: maturation (temperature cycling RT to 50° C.) in solvents, XRPD; format: physicochemical
# Description: One of 21 solvents was added to each vial in a number of aliquots (up to 30 volumes), with shaking. All the samples were then placed under maturation between RT to 50° C. (4 hours at each temperature) for 3 days. After maturation the samples were analysed by XRPD. Clear solutions were cooled to −20° C. (freezer). If no precipitation occurred samples were evaporated at RT.
# Samples were placed under maturation between RT-50° C. (4 hours cycle) for 3 days. After maturation the samples were analyzed by XRPD. Clear solutions were then cooled to −20° C. (freezer). If no precipitation occurred, samples were evaporated at RT.
# The corresponding solvents and solvent mixtures were added in portions of (a total of) 5, 10, 20, and 30 volumes at 50° C., with shaking, aiming for clear solutions. After each addition, the vials were allowed to shake for 20 minutes, after which observations were made. Solutions were allowed to evaporate, whereas slurries were set for 8 hour temperature cycling maturation, between RT and 50° C., for 5 days.
# The oils obtained by solvent evaporation were used for the maturation screen. Anhydrous solvents (5 volumes; 100 μL) were used in order to minimise the amount of water present. Any solutions were allowed to slowly evaporate, whereas slurries were set for 8 hour temperature cycling maturation, between RT and 50° C. […] These were matured for a further 24 hours before performing XRPD analysis.
# The selected solvents and solvent mixtures (5 to 20 volumes) were added with stirring. Any solutions were allowed to slowly evaporate, whereas slurries were set for 8 hour temperature cycling maturation, between RT and 50° C., for 2 days.
# Crystals were ground in order to analyse them by XRPD. Suspensions were set for temperature cycling for a total of five days after which time XRPD analysis was carried out.
# [3] = Storage at 40° C./75% RH (elevated humidity) for 1 week, re-analysis by XRPD/HPLC; conditions: for Storage 40° C./75% RH: salt screen solids, 1 week, XRPD pattern or observation
# Description: The crystalline solids were filtered, dried at ambient conditions, and stored at 40° C./75% RH for 1 week and analyzed by ^1H NMR/IC.
# Samples from the screen using amorphous free base Compound 1 were analysed by ^1H-NMR and DSC, and re-analysis by XRPD was also carried out after drying at 50° C./vacuum and storage at 40° C./75% RH (the same sample was dried and stored at elevated humidity).
# [4] = Gravimetric vapour sorption (GVS); format: physicochemical; conditions: for GVS: moisture on loading: loaded at 40% RH, 25° C.; for GVS: XRPD after the experiment: re-analysis by XRPD after GVS
# Description: Sorption isotherms were obtained using a Hiden IGASorp moisture sorption analyser, controlled by CFRSorp software. The sample temperature was maintained at 25° C. by a Huber re-circulating water bath. The humidity was controlled by mixing streams of dry and wet nitrogen, with a total flow rate of 250 ml/min. The relative humidity (RH) was measured by a calibrated Vaisala RH probe (dynamic range of 0-95% RH), located near the sample. The weight change, (mass relaxation) of the sample as a function of % RH was constantly monitored by the microbalance (accuracy ±0.001 mg). Typically 10-20 mg of sample was placed in a tared mesh stainless steel basket under ambient conditions. The sample was loaded and unloaded at 40% RH and 25° C. (typical room conditions). A moisture sorption isotherm was performed as outlined below (2 scans giving 1 complete cycle). The standard isotherm was performed at 25° C. at 10% RH intervals over a 0-90% RH range.
# The software uses a least squares minimisation procedure together with a model of the mass relaxation, to predict an asymptotic value. The measured mass relaxation value must be within 5% of that predicted by the software, before the next % RH value is selected. The minimum equilibration time was set to 1 hour and the maximum to 4 hours. The sample was recovered after completion of the isotherm and re-analysed by XRPD.
# [5] = Solubility of free base hydrate and salts versus pH (Table 24); format: physicochemical
structure (smiles),measurement,setting,value
COc1cc(-c2cccc3cc([C@H](C)Nc4nc(N)ncc4C#N)n(-c4ccccc4)c(=O)c23)ccn1.O [FB Hydrate Form 2],Solubility at 50° C.,"[1]; 2-MeTHF, 50 vols",✓
same,Solubility at 50° C.,"[1]; DCM, 75 vols",✓
same,Solubility at 50° C.,"[1]; DCM:MeOH 1:1, 75 vols",✓
same,Solubility,"[1]; DMSO, 10 vols",✓
same,Solubility at 50° C.,"[1]; Dioxane, 10 vols",✓
same,Solubility at 50° C.,"[1]; MeCN/5% water, 75 vols",✓
same,Solubility,"[1]; MeOH/anisole, 10 vols",✓
same,Solubility at 50° C.,"[1]; THF, 50 vols",Almost
same,Solubility at 50° C.,"[1]; THF, 75 vols",✓
same,Solubility,"[1]; chloroform, 20 vols",✓
same,XRPD,"[2]; FB Hydrate Form 2 in 1-butanol, Maturation",Crystalline Form 5
same,XRPD,"[2]; FB Hydrate Form 2 in 2-MeTHF, Evaporation yielded oil, maturation of oil",Crystalline Form 5
same,XRPD,"[2]; FB Hydrate Form 2 in Acetone, Maturation",Crystalline Form 5
same,XRPD,"[2]; FB Hydrate Form 2 in DCM:MeOH 1:1, Crystallization in fridge",Crystalline Form 5 + Form 1
same,XRPD,"[2]; FB Hydrate Form 2 in DCM, Crystallization in fridge",Crystalline Form 5
same,XRPD,"[2]; FB Hydrate Form 2 in DMSO, No crystallization in fridge, set for evaporation",Amorphous
same,XRPD,"[2]; FB Hydrate Form 2 in Dioxane, Evaporation yielded oil, maturation of oil",Crystalline Form 5 + Form 3
same,XRPD,"[2]; FB Hydrate Form 2 in EtOAc, Maturation",Crystalline Form 5
same,XRPD,"[2]; FB Hydrate Form 2 in EtOH/5% water, Maturation",Crystalline Form 5
same,XRPD,"[2]; FB Hydrate Form 2 in EtOH/water 1:1, Maturation",Crystalline Form 2
same,XRPD,"[2]; FB Hydrate Form 2 in EtOH, Maturation",Crystalline Form 5
same,XRPD,"[2]; FB Hydrate Form 2 in IPA, Maturation",Crystalline Form 5
same,XRPD,"[2]; FB Hydrate Form 2 in IPAc, Maturation",Crystalline Form 5
same,XRPD,"[2]; FB Hydrate Form 2 in MIBK, Maturation",Crystalline Form 5
same,XRPD,"[2]; FB Hydrate Form 2 in MeCN/5% water, Crystallization in fridge",Crystalline Form 5
same,XRPD,"[2]; FB Hydrate Form 2 in MeOH/anisole, Crystallization in fridge",Crystalline Form 5
same,XRPD,"[2]; FB Hydrate Form 2 in THF, Crystallization in fridge",Crystalline Form 5
same,XRPD,"[2]; FB Hydrate Form 2 in acetonitrile, Maturation",Crystalline Form 5
same,XRPD,"[2]; FB Hydrate Form 2 in chloroform, Cooling in fridge yielded oil, maturation of oil",Crystalline Form 5
COc1cc(-c2cccc3cc([C@H](C)Nc4nc(N)ncc4C#N)n(-c4ccccc4)c(=O)c23)ccn1 [listing 1 of 2 here],Storage 40° C./75% RH,[3]; listed as 1-2-Ethane disulfonic acid,acid salt Pattern 1
CC(=O)O.COc1cc(-c2cccc3cc([C@H](C)Nc4nc(N)ncc4C#N)n(-c4ccccc4)c(=O)c23)ccn1.COc1cc(-c2cccc3cc([C@H](C)Nc4nc(N)ncc4C#N)n(-c4ccccc4)c(=O)c23)ccn1 [Batch 1 of Form 6],GVS: second cycle reversible moisture uptake,[4]; between 0-90% RH,cycle shows 4.9%
same,GVS: moisture on loading,[4],6.3% w/w moisture on
same,GVS: XRPD after the experiment,[4],anhydrous Form 4
COc1cc(-c2cccc3cc([C@H](C)Nc4nc(N)ncc4C#N)n(-c4ccccc4)c(=O)c23)ccn1 [listing 2 of 2 here],Storage 40° C./75% RH,[3]; listed as 2-Hydroxyethane sulfonic acid,Deliquesced
COc1cc(-c2cccc3cc([C@H](C)Nc4nc(N)ncc4C#N)n(-c4ccccc4)c(=O)c23)ccn1 [Form 6 of the free base of Compound 1],GVS behaviour (hydration / desolvation),"[4]; text statements, listed as Form 6",Desolvation to the anhydrous Form 4
same,solid form after storage at elevated humidity,"[3]; elevated humidity conditions, not specified in the sentence, listed as Form 6",conversion to Hydrate Form 3
COc1cc(-c2cccc3cc([C@H](C)Nc4nc(N)ncc4C#N)n(-c4ccccc4)c(=O)c23)ccn1 [Form 4 of Free Base Compound 1],GVS: moisture uptaken,"[4]; between 70-90% RH, with hysteresis on desorption",4.8 % w/w
same,GVS: moisture on loading,[4],0.3 % w/w
same,GVS: XRPD after the experiment,[4],No changes by XRPD after the experiment.
COc1cc(-c2cccc3cc([C@H](C)Nc4nc(N)ncc4C#N)n(-c4ccccc4)c(=O)c23)ccn1.O=C(O)/C=C\C(=O)O [Maleic acid salt],Solubility,"[5]; 0.1N HCl, 37° C., at saturation",34 mg/mL
same,Solubility,[5]; Simulated Gastric Fluid,>19 mg/mL
same,Solubility,[5]; Simulated Intestinal Fluid,0.01 mg/mL
same,Solubility,[5]; Water (pH 4.43),~0.2 mg/mL (pH 4.43)
same,Solubility,"[5]; citrate buffer, pH 2.5, at 37° C.",3.13 mg/mL at 37 °C
same,Solubility,"[5]; citrate buffer, pH 2.5, at RT",1.8 mg/mL at RT;
same,Solubility,"[5]; pH 1.6, 37° C.",>4
same,Solubility,"[5]; pH 1.6, RT",>4
same,Solubility,"[5]; pH 2.5, 37° C.",3.07
same,Solubility,"[5]; pH 2.5, RT",3.57
same,Solubility,"[5]; pH 2.9, 37° C.",1.62
same,Solubility,"[5]; pH 2.9, RT",1.39
same,Solubility,"[5]; pH 3.8, 37° C.",0.31
same,Solubility,"[5]; pH 3.8, RT",0.24
COc1cc(-c2cccc3cc([C@H](C)Nc4nc(N)ncc4C#N)n(-c4ccccc4)c(=O)c23)ccn1.O=S(=O)(O)O.O=S(=O)(O)O [Amorphous Bis-Sulfuric Acid Salt],XRPD,"[2]; amorphous oil in anhydrous BuOAc 100 μL, maturation 48 h, RT-50° C. cycling",Amorphous
same,XRPD,"[2]; amorphous oil in anhydrous DCM 100 μL, maturation 48 h, RT-50° C. cycling",Amorphous
same,XRPD,"[2]; amorphous oil in anhydrous DIPE 100 μL, maturation 48 h, RT-50° C. cycling",Amorphous
same,XRPD,"[2]; amorphous oil in anhydrous Dioxane 100 μL, maturation 48 h, RT-50° C. cycling",Amorphous glass
same,XRPD,"[2]; amorphous oil in anhydrous EtOAc 100 μL, maturation 48 h, RT-50° C. cycling",Amorphous
same,XRPD,"[2]; amorphous oil in anhydrous IPA 100 μL, maturation 48 h, RT-50° C. cycling",Amorphous glass
same,XRPD,"[2]; amorphous oil in anhydrous Methanol 100 μL, solution set for evaporation",Oil
same,XRPD,"[2]; amorphous oil in anhydrous TBME 100 μL, maturation 48 h, RT-50° C. cycling",Amorphous
same,XRPD,"[2]; amorphous oil in anhydrous THF 100 μL, maturation 48 h, RT-50° C. cycling",Amorphous
same,XRPD,"[2]; amorphous oil in anhydrous Toluene 100 μL, maturation 48 h, RT-50° C. cycling",Amorphous
